In brackets after ≈: the same amount, converted by molar mass.
Key:
[1] = ABTS assay, antioxidant capacity (cell free in vitro test); type: biochemical; conditions: ABTS discolouration measured photometrically at 734 nm; 96-well plates, 5 concentrations
Description: The antioxidant capacity of 3-(4-hydroxy-3-methoxyphenyl)-1-(4-hydroxyphenyl)-1-propanone of formula (I) disclosed here was evaluated with the ABTS assay, a cell free in vitro test. The assay principle bases on the chemical reduction being accompanied by discolouration of the green coloured cationic radical 2,2′-Azinobis(3-ethylbenzothiazoline 6-sulfonic acid) (ABTS^+) by antioxidants. The grade of discolouration can be measured photometrically at 734 nm. The compound of formula (I) as well as standard antioxidants like Trolox, a water soluble alpha-tocopherol analog and green tea extract were tested on 96-well microtiter plates at 5 concentrations. Each concentration was tested in double in two independent experiments. IC50 values for the compound of formula (I) as well as for the comparative examples are depicted in table 1.
Therefore, the compound of formula (I) is a highly suitable new product either to protect biological systems from damage caused by free radicals of different type and origin or to extend the shelf life of products comprising highly unstable, easily oxidising molecules.

Stability studies = type: physicochemical; conditions: in contrast to common antioxidants like Trolox, alpha-tocopherol or green tea extract

Row | SMILES | IC50 [1] | stability (Stability studies)
1 | COc1cc(CCC(=O)c2ccc(O)cc2)ccc1O [3-(4-hydroxy-3-methoxyphenyl)-1-(4-hydroxyphenyl)-1-propanone] | 5 µg/mL (≈ 18.4 µM) | highly stable
2 | Cc1c(C)c2c(c(C)c1O)CCC(C)(C(=O)O)O2 (stereo not drawn) [Trolox, 6-hydroxy-2,5,7,8-tetramethylchroman-2-carboxylic acid, reference compound] | 6 µg/mL (≈ 24 µM) | –
